Laboratory results taken from ChEMBL document CHEMBL4020702, “Development of α1,6-fucosyltransferase inhibitors through the diversity-oriented syntheses of GDP-fucose mimics using the coupling between alkyne and sulfonyl azide” (Bioorg Med Chem, 2017).

Target: T1, Alpha-(1,6)-fucosyltransferase (Homo sapiens) (UniProt Q9BYC5)
T1 sequence (whole entry): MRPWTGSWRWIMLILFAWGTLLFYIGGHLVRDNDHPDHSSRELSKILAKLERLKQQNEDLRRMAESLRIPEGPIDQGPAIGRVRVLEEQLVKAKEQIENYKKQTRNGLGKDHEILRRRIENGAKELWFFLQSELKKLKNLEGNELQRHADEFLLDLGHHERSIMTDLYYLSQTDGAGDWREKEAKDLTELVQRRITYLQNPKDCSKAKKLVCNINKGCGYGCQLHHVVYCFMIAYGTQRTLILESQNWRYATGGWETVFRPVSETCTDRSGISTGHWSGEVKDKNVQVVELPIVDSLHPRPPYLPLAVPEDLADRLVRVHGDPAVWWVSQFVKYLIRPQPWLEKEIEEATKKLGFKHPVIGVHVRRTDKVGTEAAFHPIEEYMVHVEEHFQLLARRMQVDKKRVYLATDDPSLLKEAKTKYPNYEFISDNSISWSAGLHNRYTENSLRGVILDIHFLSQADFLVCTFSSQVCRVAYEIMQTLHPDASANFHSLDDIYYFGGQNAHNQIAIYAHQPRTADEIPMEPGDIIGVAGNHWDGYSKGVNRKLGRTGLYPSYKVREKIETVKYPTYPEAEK
Test: Inhibition of FUT8 in human […] cells at 100 uM using (S)-2-(((9H-fluoren-9-yl)methoxy)carbonylamino)-4-((2R,3R,4R,5S,6R)-3-acetamido-5-((2S,3R,4R,5S,6R)-3-acetamido-5-((2S,3S,4S,5R,6R)-4-((2R,3S,4S,5S,6R)-3-((2S,3R,4R,5S,6R)-3-acetamido-4,5-dihydroxy-6-(hydroxymethyl)tetrahydro-2H-pyran-2-yloxy)-4,5-dihydroxy-6-(hydroxymethyl)tetrahydro-2H-pyran-2-yloxy)-6-(((2S,3S,4S,5S,6R)-3-((2S,3R,4R,5S,6R)-3-acetamido-4,5-dihydroxy-6-(hydroxymethyl)tetrahydro-2H-pyran-2-yloxy)-4,5-dihydroxy-6-(hydroxymethyl)tetrahydro-2H-pyran-2-yloxy)methyl)-3,5-dihydroxytetrahydro-2H-pyran-2-yloxy)-4-hydroxy-6-(hydroxymethyl)tetrahydro-2H-pyran-2-yloxy)-4-hydroxy-6-(hydroxymethyl)tetrahydro-2H-pyran-2-ylamino)-4-oxobutanoic acid as substrate after 24 hrs in presence of GDP-fucose by HPLC method relative to control
Assay type: cell-based

Compound	inhibition
CCCS/C(CCO[C@H]1O[C@@H](C)[C@@H](O)[C@@H](O)[C@@H]1O)=N\S(=O)(=O)CCCCCn1cnc2c(=O)[nH]c(N)nc21	14%
CO/C(CCO[C@H]1O[C@@H](C)[C@@H](O)[C@@H](O)[C@@H]1O)=N\S(=O)(=O)CCCCCn1cnc2c(=O)[nH]c(N)nc21	57%
CCN(CC)/C(CCO[C@H]1O[C@@H](C)[C@@H](O)[C@@H](O)[C@@H]1O)=N\S(=O)(=O)CCCCCn1cnc2c(=O)[nH]c(N)nc21	39%
CCCN/C(CCO[C@H]1O[C@@H](C)[C@@H](O)[C@@H](O)[C@@H]1O)=N\S(=O)(=O)CCCCCn1cnc2c(=O)[nH]c(N)nc21	41%
C[C@@H]1O[C@H](OCc2cn(S(=O)(=O)CCCCCn3cnc4c(=O)[nH]c(N)nc43)nn2)[C@@H](O)[C@H](O)[C@@H]1O	45%
C[C@@H]1O[C@H](OCCC(=O)NS(=O)(=O)CCCCCn2cnc3c(=O)[nH]c(N)nc32)[C@@H](O)[C@H](O)[C@@H]1O	31%
